Measurements from patent US6387647B1 (priority 1993, dated 2002).

Legend:
[1] = tested on: DCX45(pML82)-1B (disrupted cytochrome P450 reductase gene); experiment: disk sensitivity on YEPD of LEU+ spores / strain DCX45(pML82)-1B (Example 1); details: for sensitivity of LEU+ cultures compared with leu− cultures: spores plated on YEPD, disks containing the inhibitors
erg6 mutants = details: cited from earlier work
DCX45 (pML82)-1B = experiment: imidazole sensitivity (limit of detection) on cytochrome P450 reductase disrupted strain; format: cell-based, Saccharomyces cerevisiae
Description: (§1) Overnight cultures of S. cerevisiae strain DCX45-(pML82)-1B from Example 1 above and strain STX429-2A obtained from the Yeast Genetics Stock Center are grown in liquid YEPD media shaken at 30° C. to an OD600 of ˜5 or greater.
(§2) Test media are prepared by combining separately 0.5 parts STX429-2A inoculum to 100 parts of warm YEPD agar media and 2 parts of DCX45(pML82)-1B to 100 parts of warm YEPD agar media. Plates for each culture are poured. Test samples are prepared on disks in duplicate, and each is placed on a STX429-2A plate and a DCX45(pML82)-1B plate, testing 20 μg of test sample per disk. A ¼″ disk containing 10 μg of dinaconazole is used as a positive control on each plate.
(§3) The plates are incubated at 30° C. for two days and then examined to compare activity on the two strains. Actives produce a larger zone on the DCX45(pML82)-1B plate than on the STX429-2A plate. Only compounds producing a differential of approximately 8 mm or more are scored as active.
The imidazole sensitivity of these compounds in the strains is as follows: […]

[2] = tested on: Saccharomyces cerevisiae strain DCX45(pML82)-1B (disrupted cytochrome P450 reductase gene) versus strain STX429-2A (erg6); format: cell-based; details: 20 μg per disk; YEPD agar, 30° C., two days; differential of approximately 8 mm or more scored as active
Description: Liquid yeast extract, peptone and dextrose (YEPD) media is first prepared by mixing the following ingredients obtained from Difco
and autoclaving at 20 lbs for 15 min. Solidified YEPD media is prepared using the above ingredients, except that
as §1, §2, §3

STX429-2A (erg 6) = details: strain STX429-2A (erg 6)
Description: as §2
The plates are incubated at 30° C. for two days and then examined to compare activity on the two strains. Actives produce a larger zone on the DCX45(pML82)-1B plate than on the STX429-2A plate.

[3] = tested on: cytochrome P450 reductase yeast mutants (TSY11-6C, TSY21); details: cited from earlier work

Compound	sensitivity of LEU+ cultures compared with leu− cultures [1]	Limit of Detection (DCX45 (pML82)-1B) [ng]	activity in the cytochrome P450 reductase screen (larger zone on the DCX45(pML82)-1B plate than on the STX429-2A plate) [2]	also measured
C/C=C/C/C=C/CCC(=O)[C@H]1O[C@H]1C(N)=O [cerulenin]				sensitivity of strain DCX45(pML82)-1B [1]: increased sensitivity
C[C@@H]1C[C@@H]([C@H](O)CC2CC(=O)NC(=O)C2)C(=O)[C@@H](C)C1 [cycloheximide]				sensitivity or resistance of erg6 mutant strains (erg6 mutants): hypersensitivity
CC(C)(C)C(O)/C(=C/c1ccc(Cl)cc1Cl)n1cncn1 (centres unmarked) [dinaconazole]	more sensitive	2	active	Limit of Detection (STX429-2A (erg 6)): 50 ng
Clc1ccc(COC(Cn2ccnc2)c2ccc(Cl)cc2Cl)cc1 (centres unmarked) [econazole]	more sensitive	2	active	Limit of Detection (STX429-2A (erg 6)): 50 ng
CN1C(=O)[C@]23CC4=CC=C[C@H](O)[C@H]4N2C(=O)[C@@]1(CO)SS3 [gliotoxin]			positive	
CC(=O)N1CCN(c2ccc(OCC3COC(Cn4ccnc4)(c4ccc(Cl)cc4Cl)O3)cc2)CC1 (centres unmarked) [ketoconazole]	more sensitive	5	active	sensitivity of strains TSY11-6C and TSY21 ([3]; disrupted cytochrome P450 reductase genes): sensitive; increase in sensitivity of cytochrome P450 reductase yeast mutants ([3]; mutants lacking the cytochrome P450 reductase gene): 200 fold; sensitivity of strain DCX45(pML82)-1B [1]: supersensitivity
Clc1ccc(COC(Cn2ccnc2)c2ccc(Cl)cc2Cl)c(Cl)c1 (centres unmarked) [miconazole]			active	
C[C@@H]1[C@H](O)[C@@H](C)/C=C/C=C/CC/C=C/C=C/C=C/C=C/C(O[C@H]2O[C@H](C)[C@@H](O)[C@H](N)[C@@H]2O)CC2O[C@](O)(CC(O)C(O)CCC(O)CC(O)CC(O)CC(=O)O[C@H]1C)CC(O)C2C(=O)O (some centres unmarked) [nystatin]				sensitivity or resistance of erg6 mutant strains (erg6 mutants): resistance
mevinolin [lactonized mevinolin]			no response	
